Series [1] in a line: Stability of D-Trp and D-2-methyl-Trp in 1% solutions (HPLC peak area). Type of series: physicochemical. To be noted: pH 2.2 citrate buffer, dark, helium (FIG. 1), pH 5.4 acetate buffer, oxygen, constant light (FIG. 2).
The test system of series [2] is rat. The experiment in a line: Acute cardiovascular toxicity in the rat, single i.v. dose, mortality. Type of series: in vivo. To be noted: observed up to 4 hours. The method, then:
These two peptides were also tested for acute cardiovascular toxicity in the rat.
Dosages were calculated on the basis of the declared peptide content in each product, as specified below:
A single dose of HEXARELIN or GHRP-6 was administered to rats in different calendar dates in such a way that each group/dose should be treated in two subsequent days.
For each compound, appropriate amounts of solutions in 0.9% NaCl for injection were prepared just before treatment at the suitable concentrations. The solutions were sterilized by filtration (Millipore filter, pore size 0.22 μm). Owing to the type of the study (acute study) in which formulates were administered just after preparation, stability checks were not performed. Concentration checks were also not performed. The volume of solution injected was maintained constant at 1 ml/Kg.
The intravenous injections were done as a single dose in one vein of the tail with an appropriately gauged sterile, disposable, plastic syringe. The injection rate was about 0.1 ml/sec.
Periodical observations were made up to 4 hours after treatment. Abnormality and mortality were recorded. Body weight was recorded once during pre-trial and on the administration day to calculate the volumes to be injected.

In series [3] the test system is GH release. Nature of the series: GH response in conscious, freely-moving rats after antiserum pretreatment, i.v. 25 μg/kg. The series is classed as in vivo. To be noted: 25 μg/kg i.v. On the procedure:
Sixty male rats were prepared with indwelling venous catheters under ether anesthesia three days before experimentation. On the day of experimentation, all animals were given an iv heparin injection (100 IU; 0630 h). At 0700 h, animals were treated with 0.5 ml of either normal serum (control-as), somatostatin antiserum (somatostatin-as; 0.25 ml+0.25 ml saline), growth hormone-releasing hormone antiserum (GHRH-as; 0.25 ml+0.25 ml saline), or both somatostatin antiserum and growth hormone-releasing hormone antiserum (0.25 ml somatostatin-as+0.25 ml GHRH-as). Blood sampling began 60 minutes after antiserum pretreatment, with blood samples collected every 20 minutes for three hours. After the 180 minute sample (1100 h), animals were treated iv with 25 μg/kg of either Hexarelin or GHRP-6. Blood samples were then collected at 5, 10, 15, 20, 30, 40, and 60 minutes after peptide treatment. All samples were centrifuged immediately and the plasma frozen until assayed. The peak GH response to Hexarelin and GHRP-6 as well as the area under the response curves (AUCs) for the thirty minutes following peptide injection were calculated. Data were subjected to repeated measures analysis of variance and are expressed as mean±SEM.

The subject of series [4] is GH release. Nature of the series: Plasma GH after s.c. administration in male rats anesthetized with ketamine and xilazine. The series is classed as in vivo. To be noted: 0 min (before injection). On the procedure: (§1) Male Sprague Dawley rats (Charles River, Calco, Italy) of 2-3 months of age were used. Rats were housed at 22 +2° C., with lighting cycle of 14 h light: 10 h dark (lights on from 06.00 to 20.00 h), at least 10 days before starting the experiments. A standard dry diet and water were available ad libitum.
(§2) Between 09.00-10.00 h rats were anesthetized with ketamine (58 mg/kg, Inoketam, VIRBAC, Milano) and xilazine (12 mg/kg, Rompun, Bayer, Milano). Thirty minutes later, a blood sample ([…]) was withdrawn from the exposed jugular vein, peptides were injected intravenously or subcutaneously, and further blood samples were collected 10, 20 and 30 minutes later.
(§3) Medium and plasma GH was measured by radioimmunoassay using materials supplied by the NIADDK Bethesda, Md. Values were expressed in term of NIASSK-rat-GH-RP-2 standard (potency 2 IU/ml), as ng/ml of medium or plasma.
(§4) The minimum detectable value of rat was 1.0 ng/ml; intra-assay variability was 6%. To avoid inter-assay variation, samples from each experiment were assayed simultaneously.

Series [5] relates to adenylcyclase. The experiment in a line: Adenylcyclase activity in anterior pituitary gland cells. Type of series: cell-based. To be noted: anterior pituitary gland cells from rats weighing 150 g.
Series [6] concerns GH release. The experiment in a line: Plasma GH after i.v. administration in male rats anesthetized with ketamine and xilazine. Type of series: in vivo. To be noted: 0 min (before injection). The method, then: as §1, §2, §3, §4
Series [7] concerns pituitary cell monolayers. Nature of the series: GH secretion of pituitary cell monolayers incubated with peptides. Type of series: cell-based, rats. To be noted: 2 hours incubation. The method, then: as §1
Pituitary tissue used for cell dissociation included only the anterior lobe. Briefly, pituitary glands were collected in sterile F-10 medium and after cutting into small fragments incubated twice (30 minutes each) at 37° C. in F-10 medium containing 6% fetal calf serum and collagenase (2.5 mg/ml) (Boehringer, Mannheim GmbH, Germany). Fragments were then washed in Dulbecco's PBS, Ca^2 + and Mg^2 + free medium and mechanically dissociated. Single cell suspension was planted onto 24-well (2×10^5 cells/well) culture plates. The cells were incubated in F-10 medium supplemented with 10% horse serum, 4% fetal calf serum and gentamycin (25 μg/ml), in a humidified atmosphere of 5% CO2 and 95% air at 37° C.
After 3 days, the medium was removed and the cells washed twice with serum free F-10, then incubated with 1 ml of F-10 containing 0.1% BSA only, or with added various concentrations of synthetic peptides.
After incubation for 2 h at 37° C., media were collected and stored frozen at -20° C. until assayed for measurement of GH content.
as §3, §4

Square brackets hold non-standard residues; d marks the D form. Peptide text beside a SMILES is read from it.

As for `Cc1[nH]c2ccccc2c1C[C@@H](N)C(=O)O` [substituted Trp, D-2-Methyl-Tryptophan], the “time stable in solution (HPLC peak area)” value in series [1] is listed as at least 60 days.
On to `N[C@H](Cc1c[nH]c2ccccc12)C(=O)O` [unsubstituted Trp, D-Tryptophan, reference compound], for which, in series [1], the “time stable in solution (HPLC peak area)” value is given as “about 20 days”.
Regarding `C[C@H](NC(=O)[C@@H](Cc1c[nH]c2ccccc12)NC(=O)[C@@H](N)Cc1c[nH]cn1)C(=O)N[C@@H](Cc1c[nH]c2ccccc12)C(=O)N[C@H](Cc1ccccc1)C(=O)N[C@@H](CCCCN)C(N)=O` [GHRP-6, His-D-Trp-Ala-Trp-D-Phe-Lys-NH2] (H-H[dW]AW[dF]K-NH2), the “Dead rats/Total No of rats per group” value in series [2] (2.5 mg/kg i.v. single dose) is recorded as 0/6; in series [2] (5.0 mg/kg i.v. single dose), 1/6; in series [2] (7.5 mg/kg i.v. single dose), 2/6. Further, the “Mean GH” value in series [3] (main peptide effect pooled over antiserum pretreatments) was determined as 131 ± 13 ng/mL. For the same molecule, the “Peak GH” value in series [3] (pooled over antiserum pretreatments) came out at 293 ± 41 ng/mL. Also, the “GH AUC” value in series [3] (thirty minutes following injection, pooled over antiserum pretreatments) is 4220 ± 665 ng/ml/30 min. Further, the “plasma GH” value in series [4] (s.c. 150 μg/kg) worked out at 20.0 ± 5.0 ng/mL; in series [4] (s.c. 300 μg/kg), 20.0 ± 6.0 ng/mL; in series [4] (s.c. 600 μg/kg), 18.0 ± 4.0 ng/mL; in series [6] (i.v. 150 μg/kg), 30.2 ± 7.8 ng/mL; in series [6] (i.v. 300 μg/kg) it was 21.9 ± 4.4 ng/mL; in series [6] (i.v. 600 μg/kg), 21.2 ± 6.1 ng/mL. Also, the “adenylcyclase activity, increase compared with the baseline” value in series [5] was “inactive”. The GH-releasing activity came out at 510.0 ± 12.0 ng/well in series [7] (10^-6 M), 526.5 ± 19.0 ng/well in series [7] (10^-7 M) and 544.2 ± 23.9 ng/well in series [7] (10^-8 M).

Source of the values: US5955421A, “Peptides containing D-2-alkyl-Tryptophan” (priority 1990, dated 1999).
